From patent publication US10953015B2, “Use of adenosine receptor signaling to regulate P-gp function” (CORNELL UNIVERSITY, priority 2016, dated 2021)

Experiments:
[1] = biological target: T1, P-gp (Mus musculus, UniProt P21447); assay: Epirubicin brain accumulation assay; format: in vivo; conditions: mice
T1 construct: down-modulation of P-gp expression and function in brain vascular endothelial cells in WT mice; from tissue; host or cells: brain of WT mice
Protocol: FIG. 12A is a fluorescence microscopy image showing immunofluorescence images of brains from Lexiscan®-treated mice of WT brain at 15 and 30 minutes after Lexiscan® treatment. Frozen brain sections were stained with GLUT1 (red), or P-gp (green) and counterstained with DAPI (blue). FIG. 12B is a fluorescence microscopy image showing an enlarged image of FIG. 12A. FIG. 12C is a graph summarizing the experimental results of a brain epirubicin accumulation assay in the Lexiscan®- and vehicle-treated (control) mice. Briefly, 10 mg/kg of epirubicin was injected intravenously with or without 0.05 mg/kg of Lexiscan®. Mice were perfused with ice-cold PBS and sacrificed at different time points. The accumulation of epirubicin in the brain was measured using fluorometric excitation at 488 nm and emission at 590 nm. *P<0.05 (n=4, 2-tailed Student's t test). FIG. 12D are fluorescence microscopy images showing fluorescent microscopic analysis of epirubicin accumulation in the brains of mice treated with Lexiscan® or PSC833 (a functional P-gp inhibitor) compared with vehicle (control). 10 mg/kg of epirubicin was injected intravenously with or without 0.05 mg/kg of Lexiscan® or 50 mg/kg of PSC833 for 15 minutes. Mice were perfused with ice-cold PBS and sacrificed. Brain was sectioned for microscopic analysis for full-brain image, and focal zoomed image from cortex was laid as an inset. Epirubicin is in red, and nucleus was counterstained with DAPI (blue). FIG. 12E are graphs showing the quantified intensity of epirubicin from different regions of cortex (CTX), cerebellum (CRBL), and hippocampus (HPC) from brains of control, Lexiscan®-, or PSC833-injected animals and depicted as graphs. The scale bars indicate 100 μm in FIG. 12A; 50 μm in FIG. 12B, and 5 mm in FIG. 12D). ***P<0.001 (n=50, 2-tailed Student's t test).
FIG. 14A is a western blot of P-gp and BCRP1 from mouse brain at 2 and 18 hours after NECA treatment. FIG. 14B are graphs showing the enumeration of the expression intensity of P-gp and BCRP1 from the western blots shown in FIG. 14A. The intensity of the bands from NECA treatment group was divided by that of DMSO control. […] For fluorescence microscopy, frozen brain sections were stained with GLUT1 (red) or P-gp (green) and counterstained with DAPI (blue). […] The accumulation of epirubicin in the brain was measured using fluorometry, with excitation at 488 nm and emission at 590 nm. *P<0.05 (n=4, 2-tailed Student's t test).
For Lexiscan® study, 10 mg/kg of epirubicin was injected with or without Lexiscan® (0.05 mg/kg) at different time points, and mice were sacrificed. […] Samples were spun down at 17,000 g for 30 minutes, and the concentration for epirubicin was analyzed with fluorimetry with […].

[2] = test system: P-gp; assay: Western blot of P-gp expression in primary human brain endothelial cells; format: cell-based; conditions: 1 μM, up to 72 hours
Protocol: (§1) HCMEC-D3 and HBMVEC cells were plated in 12-well plates and were grown until they reached 100% confluency. The media was replaced with fresh media containing 1 μM of Lexiscan® or NECA with proper vehicle control (DMSO) for up to 72 hours. Cells were lysed by lysis buffer […] containing protease inhibitor cocktail and stored for later use (−70° C.). For cytoskeletal fraction analysis, cells were lysed in CSK buffer (100 mM NaCl, 300 mM sucrose, 3 mM MgCl2, 10 mM PIPES, pH 6.8). For brain samples, half of the brain was homogenized and lysed with […] lysis buffer and centrifuged at 17,000 g for 20 minutes and 1:10 diluted samples were used for analysis. Sample was loaded on 7% SDS PAGE at 100 V for 1 hour and transferred to the nitrocellulose paper. It was blocked with 1% BSA and incubated with anti-P-gp antibody (Genetex, 1:2000) overnight. Subsequently, it was washed with TBST and incubated with anti-rabbit secondary antibody (1:2000) for 1 hour. It was washed with TBST and developed with ECL substrate and exposed to x-ray film. Anti-GAPDH or −β-actin antibody was used as loading control. The intensity of band was analyzed with densitometric analysis and plotted as a graph for analysis of time-course effect of AR signaling on P-gp expression.

[3] = test system: BCRP1/ABCG2; assay: BCRP1 expression in brain of WT mice (western blot); format: in vivo, mouse
[4] = test system: P-gp; assay: Western blot of P-gp expression in primary mouse brain endothelial cells; format: cell-based; conditions: 1 μM, up to 72 hours
Protocol: Mice were sacrificed and meninges of brain were removed and ground using a plunger and centrifuged at 3,000 g for 5 minutes. The obtained pellet was dissolved in 18% dextran and centrifuged at 10,000 g for 10 minutes and digested with DMEM containing collagenase, DNAse, and dispase at 37° C. for 75 minutes. The sample was centrifuged for 5 minutes at 3,200 g, and the pellet was washed with warm PBS. The pellet was resuspended in DMEM/F12 with puromycin, heparin, 20% PDS, and 1-glutamine and plated onto the proper plate.
as §1, with “Sample was loaded on 7% SDS PAGE at 100 V for 1 hour and transferred to the nitrocellulose paper. It was blocked with 1% BSA and incubated with anti-P-gp antibody (Genetex, 1:2000) overnight. Subsequently, it was washed with TBST and incubated with anti-rabbit secondary antibody (1:2000) for 1 hour. It was washed with TBST and developed with ECL substrate and exposed to x-ray film. Anti-GAPDH or −β-actin antibody was used as loading control.” left out

[5] = test system: P-gp; assay: Western blot of P-gp expression in HCMEC-D3 cells; format: cell-based, human; conditions: 1 μM, up to 72 hours
Protocol: as §1

T1 sequence (P21447 whole entry): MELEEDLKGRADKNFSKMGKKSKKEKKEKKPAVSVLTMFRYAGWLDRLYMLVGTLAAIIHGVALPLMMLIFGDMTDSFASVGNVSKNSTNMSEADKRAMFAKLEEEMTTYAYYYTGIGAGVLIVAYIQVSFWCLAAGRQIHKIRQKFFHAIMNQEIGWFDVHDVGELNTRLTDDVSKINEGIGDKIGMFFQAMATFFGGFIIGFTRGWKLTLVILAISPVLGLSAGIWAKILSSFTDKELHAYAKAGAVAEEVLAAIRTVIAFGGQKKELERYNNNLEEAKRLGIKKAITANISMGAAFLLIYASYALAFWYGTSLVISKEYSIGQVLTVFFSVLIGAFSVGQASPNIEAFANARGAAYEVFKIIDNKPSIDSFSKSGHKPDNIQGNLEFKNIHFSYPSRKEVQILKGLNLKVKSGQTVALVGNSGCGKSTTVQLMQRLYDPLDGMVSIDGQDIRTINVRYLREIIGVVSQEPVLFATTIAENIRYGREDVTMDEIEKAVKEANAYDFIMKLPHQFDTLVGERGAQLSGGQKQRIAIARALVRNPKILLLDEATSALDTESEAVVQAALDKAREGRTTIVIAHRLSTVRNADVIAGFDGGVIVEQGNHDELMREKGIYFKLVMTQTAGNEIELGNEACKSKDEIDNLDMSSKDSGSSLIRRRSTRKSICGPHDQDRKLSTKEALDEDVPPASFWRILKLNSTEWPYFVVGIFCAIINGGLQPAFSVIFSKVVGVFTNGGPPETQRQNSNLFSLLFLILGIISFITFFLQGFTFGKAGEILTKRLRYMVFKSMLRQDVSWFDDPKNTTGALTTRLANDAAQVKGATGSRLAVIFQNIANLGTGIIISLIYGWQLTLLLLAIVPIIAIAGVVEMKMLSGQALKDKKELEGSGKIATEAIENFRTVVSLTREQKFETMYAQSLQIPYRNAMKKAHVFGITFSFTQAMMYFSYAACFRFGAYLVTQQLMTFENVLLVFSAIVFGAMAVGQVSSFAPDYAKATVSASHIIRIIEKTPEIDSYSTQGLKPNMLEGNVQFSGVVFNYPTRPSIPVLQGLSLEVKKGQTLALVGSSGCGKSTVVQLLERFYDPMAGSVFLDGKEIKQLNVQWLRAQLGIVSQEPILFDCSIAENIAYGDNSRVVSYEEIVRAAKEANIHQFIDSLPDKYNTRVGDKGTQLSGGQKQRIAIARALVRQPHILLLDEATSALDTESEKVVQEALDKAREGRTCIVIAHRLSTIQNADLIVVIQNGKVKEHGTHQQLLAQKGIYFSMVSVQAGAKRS

Compound	Epirubicin accumulation in the brain (fluorometry) ([1]; 0.08 mg/kg NECA i.v., then 10 mg/kg epirubicin i.v. for 15 minutes)	P-gp expression (western blot, vs DMSO control) [2]	BCRP expression level in brain ([3]; 2 and 18 hours after NECA)	P-gp expression (western blot, normalized to GAPDH) [4]	P-gp expression (western blot, vs DMSO control) [5]	Epirubicin fluorescent intensity in brain sections (cortex, cerebellum, hippocampus) ([1]; 10 mg/kg epirubicin i.v. with 0.05 mg/kg Lexiscan® or 50 mg/kg PSC833 for 15 minutes)	Epirubicin accumulation in the brain (fluorometry) ([1]; 10 mg/kg epirubicin i.v. with 0.05 mg/kg Lexiscan®, different time points)	Time at which effect on BCRP occurred [3] [min]	BCRP expression in brain ([3]; Lexiscan® treatment, 5 to 60 minutes)
CCNC(=O)[C@H]1O[C@@H](n2cnc3c(N)ncnc32)[C@H](O)[C@@H]1O [NECA, (2S,3S,4R,5R)-5-(6-aminopurin-9-yl)-N-ethyl-3,4-dihydroxyoxolane-2-carboxamide]	showed epirubicin accumulation in the brain that matched the kinetics of P-gp decrease	began to decrease at 30 minutes and was maintained for up to 48 hours and recovered by 72 hours	not significantly affected	P-gp expression decreased very rapidly and remained down-modulated for up to 4 hours	decreased P-gp expression for up to 4 hours	–	–	–	–
CNC(=O)c1cnn(-c2nc(N)c3ncn([C@@H]4O[C@H](CO)[C@@H](O)[C@H]4O)c3n2)c1 [Lexiscan®, 1-[6-amino-9-[(2R,3R,4S,5R)-3,4-dihydroxy-5-(hydroxymethyl)oxolan-2-yl]purin-2-yl]-N-methylpyrazole-4-carboxamide]	–	rapid down-modulation of P-gp expression, which began to decrease at 15 minutes and was maintained at a decreased level for up to 4 hours	–	rapid down-modulation of P-gp beginning at 30 minutes, which was maintained for up to 1 hour	rapid decrease in P-gp expression beginning at 30 minutes, which was maintained for up to 1 hour	Significant epirubicin intensity in the cerebral cortex, the cerebellum, and the hippocampus	began to increase at 5 minutes; this was maintained up to 30 minutes and returned to baseline by 60 minutes	15	potently down-regulated BCRP expression by 15 minutes, after which its expression began to recover by 60 minutes
